Measured values from patent publication US10030016B2 (Sunesis Pharmaceuticals, Inc., priority 2009, dated 2018).
pEC50, pIC50: −log10 of the molar value. Structures can show the parent of a compound that is named as a salt. Where two headings read alike, the source gives them in different places.

Tests used:
PDK1 = PDK1 (Homo sapiens (Human), UniProt O15530); assay: PDK1 kinase assay (coupled PDK1/AKT/FAM-crosstide assay, IMAP fluorescence polarization); assay type: biochemical
In short: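 PDK1 activity is measured indirectly through activation of a PIFtide-fused AKT2 construct that phosphorylates FAM-crosstide (100 nM). The reaction uses 0.75 nM PDK1, 40 μM ATP, 30 min, 25° C, with IMAP polarization detection.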

[1] = system: phospho-akt (Thr308) in PC-3 cells; assay: Inhibition of phospho-akt (Thr308) in PC-3 cells, MSD phospho-akt 308 ELISA kit; assay type: cell-based; details: 2 hours, no serum, read-out: EC50
In short: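 Electrochemiluminescent MSD ELISA of Thr308-phosphorylated Akt after a 2 h serum-free compound exposure of PC-3 cells (15,000/well, plated overnight). Controls: DMSO (high), 5 μM wortmannin (low). Lysate binding overnight at 4 °C; detection antibody 1 h at room temperature.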

[2] = inhibition of phospo-PDK1 in vitro
[3] = Homo sapiens, inhibition of P308 Akt in PC-3 cells, MSD
[4] = Homo sapiens, inhibition of P308 Akt in PC-3 cells using MSD

PDK1, sequence (O15530 51-359): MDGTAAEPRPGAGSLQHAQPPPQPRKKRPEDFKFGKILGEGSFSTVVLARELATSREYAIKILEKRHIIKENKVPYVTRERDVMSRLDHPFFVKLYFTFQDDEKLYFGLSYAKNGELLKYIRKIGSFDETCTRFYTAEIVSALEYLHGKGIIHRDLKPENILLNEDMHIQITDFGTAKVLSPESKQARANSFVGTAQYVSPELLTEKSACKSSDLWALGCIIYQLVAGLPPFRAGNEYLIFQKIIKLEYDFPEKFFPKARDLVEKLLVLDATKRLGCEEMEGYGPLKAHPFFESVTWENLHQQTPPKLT

| pIC50 (PDK1; inhibition of PDK1 in vitro) | pIC50 (PDK1; [2]) | pEC50 [1, 3] | pEC50 [1, 4] | SMILES | other results |
| --- | --- | --- | --- | --- | --- |
| > 7.00 |  |  |  | C[C@H](NC(=O)c1cc(C#N)cnc1NCc1ccc(-c2nc3c(N)ncnc3[nH]2)cc1)c1ccc(F)cc1 [Example 113, (S)-2-(4-(6-amino-9H-purin-8-yl)benzylamino)-5-cyano-N-(1-(4-fluorophenyl)ethyl) nicotinamide] | pEC50 ([1]; inhibition of P308 Akt in PC-3 cells using MSD): < 5.00 |
|  | > 7.00 | 5.00 to 6.00 |  | Nc1ncnc2ccc(-c3ccc(CNc4ncccc4C(=O)NCc4ccc(F)cc4F)s3)cc12 [Example 3.8, 2-({[5-(4-aminoquinazolin-6-yl)thiophen-2-yl]methyl}amino)-N-(2,4-difluorobenzyl)pyridine-3-carboxamide (TFA salt)] |  |
|  | < 5.30 | > 6.00 |  | Cc1[nH]c(/C=C2\C(=O)Nc3cc(/C=C/CNc4ncccc4C(=O)NCc4ccc(F)c(F)c4)ccc32)c(C)c1C(=O)O [Example 15.6] |  |
|  | 6.00 to 7.00 | 5.00 to 6.00 |  | C[C@H](NC(=O)c1cc(F)cnc1NCc1ccc(-c2cc3c(N)ncnc3cn2)s1)c1ccc(F)cc1 |  |
|  | > 7.00 | > 6.00 |  | Nc1ncnc2ccc(-c3ccc(CNc4ncc(F)cc4C(=O)NCc4ccc(F)c(F)c4)s3)cc12 [Ex. 7.3.1] |  |
|  | > 7.00 | < 5.00 |  | Cn1nc(Nc2ncccc2C(=O)NCc2ccc(F)c(F)c2)c2cc(-c3ccc4ncnc(N)c4c3)ccc21 [Example 14.2, 2-(5-(4-aminoquinazolin-6-yl)-1-methyl-1H-indazol-3-ylamino)-N-(3,4-difluorobenzyl)-nicotinamide] |  |
| > 7.00 |  |  | > 6.00 | Nc1n[nH]c2ncc(-c3ccc(CNc4ncc(C(F)(F)F)cc4C(=O)Nc4ccc(F)nc4)cc3)cc12 [Example 267, 2-(4-(3-amino-1H-pyrazolo [3,4-b]pyridin-5-yl)benzylamino)-N-(6-fluoropyridin-3-yl)-5-(trifluoromethyl) nicotinamide] |  |
| > 7.00 |  |  | > 6.00 | N#Cc1cnc(NCc2ccc(-c3cnc(N)cn3)cc2)c(C(=O)NCc2cncc(F)c2)c1 [Example 312, 2-(4-(5-aminopyrazin-2-yl)benzylamino)-5-cyano-N-((5-fluoropyridin-3-yl)-methyl)nicotinamide] |  |
| 6.00 to 7.00 |  |  | < 5.00 | Cc1cc(N)ncc1-c1ccc(CNc2ncc(C#N)cc2C(=O)N[C@@H](C)c2ccc(F)cc2)cc1 [Example 121, (S)-2-(4-(6-amino-4-methylpyridin-3-yl)benzylamino)-5-cyano-N-(1-(4-fluorophenyl)ethyl) nicotinamide] |  |
|  | 6.00 to 7.00 | 5.00 to 6.00 |  | Nc1ncnc2ccc(-c3ccc(CNc4ncc(S(=O)(=O)NCc5cccnc5)cc4C(=O)NCc4ccc(F)c(F)c4)s3)cc12 [Example 8.7.13, 2-(((5-(4-aminoquinazolin-6-yl)thiophen-2-yl)methyl)amino)-N-(3,4-difluorobenzyl)-5-(N-(pyridin-3-ylmethyl)sulfamoyl)nicotinamide] |  |
|  | > 7.00 | 5.00 to 6.00 |  | O=C(NCc1ccc(F)c(F)c1)c1cccnc1NCc1cccc(-c2c[nH]c3ncccc23)c1 [Example 1.5, 2-(3-(1H-pyrrolo[2,3-b]pyridin-3-yl)benzylamino)-N-(3,4-difluorobenzyl)nicotinamide] |  |
| > 7.00 |  |  | > 6.00 | Nc1ncnc2[nH]cc(-c3ccc(CNc4ncc(C(F)(F)F)cc4C(=O)Nc4ccc(F)cc4)cc3)c12 [Example 321, 2-(4-(4-amino-7H-pyrrolo [2,3-d]pyrimidin-5-yl)benzylamino)-N-(4-fluorophenyl)-5-(trifluoromethyl)nicotinamide] |  |
| 5.30 to 6.00 |  |  | < 5.00 | CN1CCN(Cc2ccc(NC(=O)c3cc(C(F)(F)F)cnc3NCc3ccc(-c4cnc5[nH]nc(N)c5c4)cc3)cc2)CC1 [Example 285, 2-(4-(3-amino-1H-pyrazolo [3,4-b]pyridin-5-yl)benzylamino)-N-(4-((4-methylpiperazin-1-yl)methyl)phenyl)-5-(trifluoromethyl)nicotinamide] |  |
|  | > 7.00 | > 6.00 |  | N#Cc1cnc(NCc2ccc(-c3ccc4ncnc(N)c4c3)s2)c(C(=O)NCc2ccc(F)cc2)n1 [Example 3.83, 3-(((5-(4-aminoquinazolin-6-yl)thiophen-2-yl)methyl)amino)-6-cyano-N-(4-fluorobenzyl)pyrazine-2-carboxamide (TFA salt)] |  |
|  | 6.00 to 7.00 | 5.00 to 6.00 |  | C[C@H](NC(=O)c1cccnc1NCc1ccc(-c2ccc3ncnc(NCCN)c3c2)s1)c1ccc(F)cc1 [Example 2.15, (S)-2-(((5-(4-(2-aminoethylamino)quinazolin-6-yl)thiophen-2-yl)methyl)amino)-N-(1-(4-fluorophenyl)ethyl)nicotinamide] |  |
| > 7.00 |  |  | 5.00 to 6.00 | C[C@H](NC(=O)c1nc(C#N)cnc1NCc1ccc(-c2cnc(N)c(C(=O)N3CCNCC3)n2)cc1)c1ccc(F)c(F)c1 [Example 219, 3-{4-[5-Amino-6-(piperazine-1-carbonyl)-pyrazin-2-yl]-benzylamino}-6-cyano-pyrazine-2-carboxylic acid [(S)-1-(3,4-difluoro-phenyl)-ethyl]-amide] |  |
|  | > 7.00 | 5.00 to 6.00 |  | C[C@H](NC(=O)c1cn(C)nc1NCc1ccc(-c2ccc3ncnc(N)c3c2)s1)c1ccc(F)c(F)c1 [Example 11.4, (S)-3-(((5-(4-aminoquinazolin-6-yl)thiophen-2-yl)methyl)amino)-N-(1-(3,4-difluorophenyl)ethyl) 1-methyl-1H-pyrazole-4-carboxamide] |  |
|  | 6.00 to 7.00 | > 6.00 |  | C[C@H](NC(=O)c1cc(I)cnc1NCc1ccc(-c2ccc3ncnc(N)c3c2)s1)c1ccc(F)cc1 [Example 7.21.2, 2-({[5-(4-aminoquinazolin-6-yl)thiophen-2-yl]methyl}amino)-N-[(1S)-1-(4-fluorophenyl)ethyl]-5-iodopyridine-3-carboxamide] |  |
|  | 6.00 to 7.00 | > 6.00 |  | CCNS(=O)(=O)c1cnc(NCc2ccc(-c3ccc4ncnc(N)c4c3)s2)c(C(=O)NCc2ccc(F)c(F)c2)c1 [Example 8.7.11, 2-({[5-(4-aminoquinazolin-6-yl)thiophen-2-yl]methyl}amino)-N-(3,4-difluorobenzyl)-5-(ethylsulfamoyl)pyridine-3-carboxamide] |  |
| < 5.30 |  |  | < 5.00 | C[C@H](NC(=O)c1cc(C#N)cnc1NCc1ccc(Oc2ccnc(N)c2)cc1)c1ccc(F)cc1 [Example 388] |  |
|  | 6.00 to 7.00 | < 5.00 |  | CC[C@H](NC(=O)c1cccnc1NCc1ccc(-c2ccc3ncnc(N)c3c2)s1)c1cccc(F)c1 [Example 3.42, (S)-2-((5-(4-aminoquinazolin-6-yl)thiophen-2-yl)methylamino)-N-(1-(3-fluorophenyl)propyl) nicotinamide (TFA salt)] |  |
| > 7.00 |  |  | > 6.00 | C[C@H](NC(=O)c1nc(C#N)cnc1NCc1ccc(-c2cnc(N)c(N3CCC[C@H](N)C3)n2)cc1)c1ccc(F)c(F)c1 [Example 198] |  |
| 6.00 to 7.00 |  |  |  | CNc1ncc2cc(O[C@@H](C)CNc3ncc(C#N)nc3C(=O)N[C@@H](C)c3ccc(F)c(F)c3)ccc2n1 [Example 254, 6-cyano-N-((S)-1-(3,4-difluorophenyl)ethyl)-3-((S)-2-(2-(methylamino)quinazolin-6-yloxy)propylamino)pyrazine-2-carboxamide] | pEC50 ([1]; Homo sapiens, PC-3, 2 h, inhibition of P308 Akt in PC-3 cells using MSD): 5.00 to 6.00 |
